{"source": "PubChem BioAssay AID540345", "about": "(The Scripps Research Institute Molecular Screening Center, 2011)", "assay_in_all_cases": "selectivity profile over receptors, transporters, CYPs – biochemical, Ricerca HitProfilingScreen, CYP450, set 2, selectivity assay for GPR7 antagonist project, profiling panel (AID 540345)", "key": {"[1]": {"biological_target": "Beta-2 adrenergic receptor (Homo sapiens) (UniProt P07550)", "conditions": "Ricerca radioligand binding/CYP panel; Adrenergic beta2; at 10 µM; stronger effect = higher value"}, "[2]": {"biological_target": "Cytochrome P450 2C9 (Homo sapiens) (UniProt P11712)", "sequence (P11712 whole entry, looked up)": "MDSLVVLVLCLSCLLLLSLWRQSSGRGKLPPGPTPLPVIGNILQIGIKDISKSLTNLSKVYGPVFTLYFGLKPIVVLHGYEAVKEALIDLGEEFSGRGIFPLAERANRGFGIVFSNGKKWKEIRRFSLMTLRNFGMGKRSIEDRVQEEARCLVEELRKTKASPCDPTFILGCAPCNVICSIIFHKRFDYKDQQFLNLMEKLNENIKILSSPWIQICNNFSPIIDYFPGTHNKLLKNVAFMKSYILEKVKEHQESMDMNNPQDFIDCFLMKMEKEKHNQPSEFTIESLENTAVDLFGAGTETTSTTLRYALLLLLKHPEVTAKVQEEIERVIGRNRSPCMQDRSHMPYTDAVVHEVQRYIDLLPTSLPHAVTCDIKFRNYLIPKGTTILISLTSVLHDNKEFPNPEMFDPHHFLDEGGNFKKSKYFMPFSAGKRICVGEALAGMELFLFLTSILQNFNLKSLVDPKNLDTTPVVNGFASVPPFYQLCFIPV", "conditions": "Ricerca radioligand binding/CYP panel; CYP450 2C9; at 10 µM; stronger effect = higher value"}, "Histamine H1": {"test_system": "Histamine H1", "conditions": "Ricerca radioligand binding/CYP panel, at 10 µM, stronger effect = higher value"}, "CYP450 2C19": {"test_system": "CYP450 2C19", "conditions": "Ricerca radioligand binding/CYP panel, at 10 µM, stronger effect = higher value"}, "Sigma 1": {"test_system": "Sigma 1", "conditions": "Ricerca radioligand binding/CYP panel, at 10 µM, stronger effect = higher value"}, "Adrenergic alpha1A": {"test_system": "Adrenergic alpha1A", "conditions": "Ricerca radioligand binding/CYP panel, at 10 µM, stronger effect = higher value"}, "[3]": {"biological_target": "5-hydroxytryptamine receptor 2B (Homo sapiens) (UniProt P41595)", "conditions": "Ricerca radioligand binding/CYP panel; Serotonin (5-Hydroxytryptamine) 5-HT2B; at 10 µM; stronger effect = higher value"}, "Calcium Channel L-Type": {"test_system": "Calcium Channel L-Type", "conditions": "Ricerca radioligand binding/CYP panel, Dihydropyridine site, at 10 µM, stronger effect = higher value"}, "Prostanoid EP4": {"test_system": "Prostanoid EP4", "conditions": "Ricerca radioligand binding/CYP panel, at 10 µM, stronger effect = higher value"}, "Dopamine D2S": {"test_system": "Dopamine D2S", "conditions": "Ricerca radioligand binding/CYP panel, at 10 µM, stronger effect = higher value"}, "Sodium Channel": {"test_system": "Sodium Channel", "conditions": "Ricerca radioligand binding/CYP panel, Site 2, at 10 µM, stronger effect = higher value"}, "[4]": {"biological_target": "Cytochrome P450 2D6 (Homo sapiens) (UniProt P10635)", "sequence (P10635 whole entry, looked up)": "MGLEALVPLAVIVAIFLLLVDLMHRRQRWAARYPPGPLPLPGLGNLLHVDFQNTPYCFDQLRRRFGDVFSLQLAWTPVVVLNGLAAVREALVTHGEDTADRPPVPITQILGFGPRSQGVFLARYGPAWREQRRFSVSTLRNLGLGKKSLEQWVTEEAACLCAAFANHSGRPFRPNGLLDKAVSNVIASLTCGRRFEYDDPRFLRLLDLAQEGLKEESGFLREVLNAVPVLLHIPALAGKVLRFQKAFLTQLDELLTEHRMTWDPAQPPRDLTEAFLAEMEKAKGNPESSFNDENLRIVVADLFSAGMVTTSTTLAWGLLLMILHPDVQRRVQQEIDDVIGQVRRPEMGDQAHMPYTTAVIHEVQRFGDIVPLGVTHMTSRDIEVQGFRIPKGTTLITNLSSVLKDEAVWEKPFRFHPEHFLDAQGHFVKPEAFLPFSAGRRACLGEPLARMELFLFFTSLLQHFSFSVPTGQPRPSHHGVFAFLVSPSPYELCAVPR", "conditions": "Ricerca radioligand binding/CYP panel; CYP450 2D6; at 10 µM; stronger effect = higher value"}, "Adrenergic alpha1B": {"test_system": "Adrenergic alpha1B", "conditions": "Ricerca radioligand binding/CYP panel, at 10 µM, stronger effect = higher value"}, "Adenosine A2A": {"test_system": "Adenosine A2A", "conditions": "Ricerca radioligand binding/CYP panel, at 10 µM, stronger effect = higher value"}, "[5]": {"biological_target": "Cytochrome P450 3A4 (Homo sapiens) (UniProt P08684)", "sequence (P08684 whole entry, looked up)": "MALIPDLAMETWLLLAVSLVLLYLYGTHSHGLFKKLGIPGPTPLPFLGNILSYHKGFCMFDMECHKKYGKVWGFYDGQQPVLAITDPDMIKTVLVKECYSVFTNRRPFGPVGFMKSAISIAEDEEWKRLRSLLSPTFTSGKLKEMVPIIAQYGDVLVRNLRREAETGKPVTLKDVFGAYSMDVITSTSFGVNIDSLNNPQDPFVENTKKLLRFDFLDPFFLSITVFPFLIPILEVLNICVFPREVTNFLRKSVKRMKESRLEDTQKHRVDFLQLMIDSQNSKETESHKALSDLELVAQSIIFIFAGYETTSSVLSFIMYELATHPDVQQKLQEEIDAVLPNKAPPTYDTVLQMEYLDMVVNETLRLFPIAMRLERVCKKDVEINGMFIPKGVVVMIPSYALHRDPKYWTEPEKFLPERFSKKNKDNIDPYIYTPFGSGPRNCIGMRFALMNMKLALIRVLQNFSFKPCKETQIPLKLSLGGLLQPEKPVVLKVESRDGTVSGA", "conditions": "Ricerca radioligand binding/CYP panel; CYP450 3A4; at 10 µM; stronger effect = higher value"}, "[6]": {"biological_target": "D(1A) dopamine receptor (Homo sapiens) (UniProt P21728)", "sequence (P21728 whole entry, looked up)": "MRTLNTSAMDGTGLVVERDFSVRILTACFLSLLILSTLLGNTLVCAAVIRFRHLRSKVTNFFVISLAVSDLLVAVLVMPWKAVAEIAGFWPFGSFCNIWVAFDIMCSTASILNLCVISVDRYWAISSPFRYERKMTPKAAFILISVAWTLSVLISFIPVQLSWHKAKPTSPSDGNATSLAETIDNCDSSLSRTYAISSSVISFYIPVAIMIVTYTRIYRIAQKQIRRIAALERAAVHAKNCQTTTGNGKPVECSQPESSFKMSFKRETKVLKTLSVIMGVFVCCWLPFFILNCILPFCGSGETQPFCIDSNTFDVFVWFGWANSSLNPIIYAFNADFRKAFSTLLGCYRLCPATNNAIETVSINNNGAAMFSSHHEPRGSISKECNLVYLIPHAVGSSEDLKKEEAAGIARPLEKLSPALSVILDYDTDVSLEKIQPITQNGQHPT", "conditions": "Ricerca radioligand binding/CYP panel; Dopamine D1; at 10 µM; stronger effect = higher value"}, "[7]": {"test_system": "Alpha-2A adrenergic receptor (Homo sapiens) + Histamine H1 receptor (Homo sapiens) + Mu-type opioid receptor (Homo sapiens)", "conditions": "Ricerca radioligand binding/CYP panel; at 10 µM; stronger effect = higher value"}, "Cannabinoid CB1": {"test_system": "Cannabinoid CB1", "conditions": "Ricerca radioligand binding/CYP panel, at 10 µM, stronger effect = higher value"}, "[8]": {"biological_target": "Muscarinic acetylcholine receptor M3 (Homo sapiens) (UniProt P20309)", "sequence (P20309 whole entry, looked up)": "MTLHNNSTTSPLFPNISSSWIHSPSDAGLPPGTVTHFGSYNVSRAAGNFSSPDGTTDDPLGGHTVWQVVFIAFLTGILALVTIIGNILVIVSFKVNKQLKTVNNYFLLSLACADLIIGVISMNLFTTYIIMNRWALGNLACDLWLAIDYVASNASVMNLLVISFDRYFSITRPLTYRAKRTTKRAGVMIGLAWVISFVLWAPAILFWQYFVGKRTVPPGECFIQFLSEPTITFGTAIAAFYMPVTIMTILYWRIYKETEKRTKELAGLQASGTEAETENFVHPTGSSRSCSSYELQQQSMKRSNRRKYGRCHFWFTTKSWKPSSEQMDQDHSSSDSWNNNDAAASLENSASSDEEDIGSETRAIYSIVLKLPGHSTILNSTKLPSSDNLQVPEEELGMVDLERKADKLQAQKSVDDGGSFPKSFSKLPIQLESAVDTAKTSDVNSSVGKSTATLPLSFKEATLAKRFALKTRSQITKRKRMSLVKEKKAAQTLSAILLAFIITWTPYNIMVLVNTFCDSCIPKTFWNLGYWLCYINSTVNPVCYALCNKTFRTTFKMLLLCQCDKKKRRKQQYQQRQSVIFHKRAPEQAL", "conditions": "Ricerca radioligand binding/CYP panel, at 10 µM, stronger effect = higher value"}, "Opiate mu (OP3, MOP)": {"test_system": "Opiate mu (OP3, MOP)", "conditions": "Ricerca radioligand binding/CYP panel, at 10 µM, stronger effect = higher value"}, "Glutamate NMDA": {"test_system": "Glutamate NMDA", "conditions": "Ricerca radioligand binding/CYP panel, Phencyclidine site, at 10 µM, stronger effect = higher value"}, "Adenosine A1": {"test_system": "Adenosine A1", "conditions": "Ricerca radioligand binding/CYP panel, at 10 µM, stronger effect = higher value"}, "[9]": {"biological_target": "Muscarinic acetylcholine receptor M2 (Homo sapiens) (UniProt P08172)", "conditions": "Ricerca radioligand binding/CYP panel, at 10 µM, stronger effect = higher value"}, "Nicotinic Acetylcholine": {"test_system": "Nicotinic Acetylcholine", "conditions": "Ricerca radioligand binding/CYP panel, at 10 µM, stronger effect = higher value"}, "[10]": {"biological_target": "Alpha-2A adrenergic receptor (Homo sapiens) (UniProt P08913)", "sequence (P08913 whole entry, looked up)": "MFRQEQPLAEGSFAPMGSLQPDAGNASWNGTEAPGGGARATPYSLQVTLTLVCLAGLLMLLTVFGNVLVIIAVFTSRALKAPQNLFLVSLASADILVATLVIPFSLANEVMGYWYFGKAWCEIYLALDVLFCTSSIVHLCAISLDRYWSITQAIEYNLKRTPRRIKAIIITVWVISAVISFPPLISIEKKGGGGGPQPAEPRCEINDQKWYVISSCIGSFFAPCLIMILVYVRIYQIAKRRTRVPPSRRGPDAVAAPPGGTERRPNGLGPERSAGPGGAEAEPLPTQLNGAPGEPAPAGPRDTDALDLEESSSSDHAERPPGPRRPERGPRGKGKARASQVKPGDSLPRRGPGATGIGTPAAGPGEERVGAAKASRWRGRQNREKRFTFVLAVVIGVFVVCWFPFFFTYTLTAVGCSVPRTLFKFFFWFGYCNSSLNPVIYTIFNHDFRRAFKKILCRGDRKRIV", "conditions": "Ricerca radioligand binding/CYP panel; Adrenergic alpha2A; at 10 µM; stronger effect = higher value"}, "[11]": {"biological_target": "Voltage-gated inwardly rectifying potassium channel KCNH2 (Homo sapiens) (UniProt Q12809)", "sequence (Q12809 whole entry, looked up)": "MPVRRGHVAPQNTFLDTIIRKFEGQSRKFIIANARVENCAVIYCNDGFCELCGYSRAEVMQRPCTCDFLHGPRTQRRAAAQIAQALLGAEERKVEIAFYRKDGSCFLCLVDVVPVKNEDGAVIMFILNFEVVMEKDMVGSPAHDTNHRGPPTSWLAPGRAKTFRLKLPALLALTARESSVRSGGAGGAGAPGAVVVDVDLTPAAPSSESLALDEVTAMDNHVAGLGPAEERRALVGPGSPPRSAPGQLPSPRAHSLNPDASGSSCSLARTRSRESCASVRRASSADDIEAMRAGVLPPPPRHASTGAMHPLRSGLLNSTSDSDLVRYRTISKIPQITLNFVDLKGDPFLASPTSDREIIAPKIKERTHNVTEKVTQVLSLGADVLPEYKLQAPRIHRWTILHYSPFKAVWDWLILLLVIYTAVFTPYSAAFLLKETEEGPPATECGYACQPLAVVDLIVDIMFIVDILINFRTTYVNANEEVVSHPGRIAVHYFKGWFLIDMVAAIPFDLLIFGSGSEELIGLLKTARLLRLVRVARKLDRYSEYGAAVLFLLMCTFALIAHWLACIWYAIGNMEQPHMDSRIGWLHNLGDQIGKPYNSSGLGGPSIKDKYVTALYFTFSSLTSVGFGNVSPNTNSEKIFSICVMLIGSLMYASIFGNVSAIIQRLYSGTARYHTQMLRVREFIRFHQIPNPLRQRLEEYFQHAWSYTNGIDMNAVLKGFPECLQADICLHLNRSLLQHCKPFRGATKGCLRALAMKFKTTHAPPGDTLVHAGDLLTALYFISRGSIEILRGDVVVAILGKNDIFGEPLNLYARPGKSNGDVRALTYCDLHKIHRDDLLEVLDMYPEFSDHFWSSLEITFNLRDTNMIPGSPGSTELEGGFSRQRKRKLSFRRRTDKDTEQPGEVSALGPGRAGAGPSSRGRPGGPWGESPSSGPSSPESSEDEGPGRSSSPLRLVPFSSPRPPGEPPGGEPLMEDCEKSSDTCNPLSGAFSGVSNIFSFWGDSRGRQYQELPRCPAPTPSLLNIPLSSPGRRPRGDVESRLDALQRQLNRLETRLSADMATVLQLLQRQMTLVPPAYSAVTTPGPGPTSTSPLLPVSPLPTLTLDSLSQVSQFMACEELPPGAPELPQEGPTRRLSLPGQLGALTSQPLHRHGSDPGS", "conditions": "Ricerca radioligand binding/CYP panel; Potassium Channel hERG; at 10 µM; stronger effect = higher value"}, "Adrenergic beta1": {"test_system": "Adrenergic beta1", "conditions": "Ricerca radioligand binding/CYP panel, at 10 µM, stronger effect = higher value"}, "[12]": {"test_system": "Transporter Norepinephrine (NET)", "conditions": "Ricerca radioligand binding/CYP panel, at 10 µM, stronger effect = higher value"}, "GABAA": {"test_system": "GABAA", "conditions": "Ricerca radioligand binding/CYP panel, central, at 10 µM, stronger effect = higher value"}, "[13]": {"biological_target": "Cytochrome P450 1A2 (Homo sapiens) (UniProt P05177)", "sequence (P05177 whole entry, looked up)": "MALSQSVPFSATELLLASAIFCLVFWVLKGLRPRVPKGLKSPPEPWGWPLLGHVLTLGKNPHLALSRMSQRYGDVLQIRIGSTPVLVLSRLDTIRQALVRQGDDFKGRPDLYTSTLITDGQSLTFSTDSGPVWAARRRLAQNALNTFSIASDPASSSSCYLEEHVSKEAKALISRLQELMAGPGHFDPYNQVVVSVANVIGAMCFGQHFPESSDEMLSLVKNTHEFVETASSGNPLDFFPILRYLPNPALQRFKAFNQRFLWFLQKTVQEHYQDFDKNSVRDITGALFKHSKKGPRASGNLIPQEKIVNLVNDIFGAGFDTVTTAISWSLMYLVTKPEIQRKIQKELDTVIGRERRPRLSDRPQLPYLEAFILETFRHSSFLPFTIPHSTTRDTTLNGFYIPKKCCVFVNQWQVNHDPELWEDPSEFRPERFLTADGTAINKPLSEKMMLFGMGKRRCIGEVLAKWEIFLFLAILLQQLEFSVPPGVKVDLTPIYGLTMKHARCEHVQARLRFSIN", "conditions": "Ricerca radioligand binding/CYP panel; CYP450 1A2; at 10 µM; stronger effect = higher value"}}, "note": "Active and inactive are the calls of the source. No rule for the calls is given here.", "data": [{"molecule": "COc1ccc(Oc2c(Cl)cnn(C3c4ccccc4-c4ccccc43)c2=O)cc1", "values": [{"measurement": "inhibition", "setting": "[1]", "result": "4% (inactive)"}, {"measurement": "inhibition", "setting": "[2]", "result": "13% (inactive)"}, {"measurement": "inhibition", "setting": "Histamine H1", "result": "17% (inactive)"}, {"measurement": "inhibition", "setting": "CYP450 2C19", "result": 51, "unit": "%"}, {"measurement": "inhibition", "setting": "Sigma 1", "result": "6% (inactive)"}, {"measurement": "inhibition", "setting": "Adrenergic alpha1A", "result": "-1% (inactive)"}, {"measurement": "inhibition", "setting": "[3]", "result": 63, "unit": "%"}, {"measurement": "inhibition", "setting": "Calcium Channel L-Type", "result": "33% (inactive)"}, {"measurement": "inhibition", "setting": "Prostanoid EP4", "result": "5% (inactive)"}, {"measurement": "inhibition", "setting": "Dopamine D2S", "result": "-1% (inactive)"}, {"measurement": "inhibition", "setting": "Sodium Channel", "result": "36% (inactive)"}, {"measurement": "inhibition", "setting": "[4]", "result": "2% (inactive)"}, {"measurement": "inhibition", "setting": "Adrenergic alpha1B", "result": "8% (inactive)"}, {"measurement": "inhibition", "setting": "Adenosine A2A", "result": "15% (inactive)"}, {"measurement": "inhibition", "setting": "[5]", "result": "26% (inactive)"}, {"measurement": "inhibition", "setting": "[6]", "result": "14% (inactive)"}, {"measurement": "inhibition", "setting": "[7]", "result": "8% (inactive)"}, {"measurement": "inhibition", "setting": "Cannabinoid CB1", "result": "9% (inactive)"}, {"measurement": "inhibition", "setting": "[8]", "result": "-1% (inactive)"}, {"measurement": "inhibition", "setting": "Opiate mu (OP3, MOP)", "result": "1% (inactive)"}, {"measurement": "inhibition", "setting": "Glutamate NMDA", "result": "-18% (inactive)"}, {"measurement": "inhibition", "setting": "Adenosine A1", "result": "7% (inactive)"}, {"measurement": "inhibition", "setting": "[9]", "result": "-2% (inactive)"}, {"measurement": "inhibition", "setting": "Nicotinic Acetylcholine", "result": "-16% (inactive)"}, {"measurement": "inhibition", "setting": "[10]", "result": "5% (inactive)"}, {"measurement": "inhibition", "setting": "[11]", "result": "28% (inactive)"}, {"measurement": "inhibition", "setting": "Adrenergic beta1", "result": "7% (inactive)"}, {"measurement": "inhibition", "setting": "[12]", "result": "42% (inactive)"}, {"measurement": "inhibition", "setting": "GABAA; Flunitrazepam site", "result": "0% (inactive)"}, {"measurement": "inhibition", "setting": "GABAA; Muscimol site", "result": "7% (inactive)"}, {"measurement": "inhibition", "setting": "[13]", "result": 67, "unit": "%"}]}]}
